From patent US20090281083A1, “Combination Product” (ASTRAZENECA AB, priority 2005, published 2009)

Legend:
5/6 nephrectomy rats [1] = assay: Survival of 5/6 nephrectomised rats at 4 months; assay type: in vivo, male Wistar rats; details: 4 months into the study (3 months of drug treatment); candesartan cilexetil 5 mg/kg/day p.o., BH4 10 mg/kg/day i.p.
Method: Sixty male Wistar rats, mean weight 324±4 g, were fed a normal chow diet and allowed distilled water ad libitum. The 5/6 nephrectomy was performed according to standard protocol. In brief, the animals were anaesthetized with pentobarbital [35 mg/kg body weight (BW) intraperitoneally] and then underwent a right nephrectomy and ligature of two of the major branches of the left main renal artery (Nx) at day 0. AII the nephrectomies were carried out by one operator. The animals were then randomly assigned to one of five groups, as follows. • Group 1. SHAM (n=12); sham-operated rats. • Group 2. Nx (n=15); untreated 5/6 nephrectomy rats. • Group 3. C (n=11); 5/6 nephrectomy rats to which candesartan cilexetil (AstraZeneca AB) was given daily at a dose of 5 mg/kg BW/day. • Group 4. BH4 (n=10); 5/6 nephrectomy rats administered BH4 (Alexis Biochemical, Lausen), 10 mg/kg BW/day intraperitoneally (see Hypertension 38, 1044-1048 (2001), the disclosures of which document are hereby incorporated by reference). • Group 5. C+B (n=12); 5/6 nephrectomy rats to which candesartan cilexetil (AstraZeneca AB) was given daily at a dose of 5 mg/kg BW/day and BH4 (Alexis Biochemical, Lausen), was administered at a dose of 10 mg/kg BW/day intraperitoneally.
(§1) Drug administration was begun 30 days after surgery (at a point when the nephrectomised rats have already developed hypertension and renal insufficiency). […] Systolic blood pressure (SBP) was measured in trained unstressed rats 1 day before surgery and at 30, 60, 90 and 120 days, by tail cuff manometry using an automated sphygmomanometer (Narco Bio Systems, Austin, Tex., USA). The Animal Care and Use Committee of Meir Hospital approved all procedures.
Due to abnormalities found by way of post-study autopsies, two rats were excluded from the analysis of the “C+B” group (i.e. Group 5).
At a point 4 months into the study (3 months of drug treatment for rats in groups 3 to 5), survival rates were as follows.

5/6 nephrectomy rats [2] = assay: Histological mesangial expansion score of kidneys of 5/6 nephrectomised rats; assay type: in vivo, male Wistar rats; details: 4 months into the study (3 months of drug treatment); candesartan cilexetil 5 mg/kg/day p.o., BH4 10 mg/kg/day i.p.; untreated Nx 200, sham 0
Method: Sixty male Wistar rats, mean weight 324±4 g, were fed a normal chow diet and allowed distilled water ad libitum. The 5/6 nephrectomy was performed according to standard protocol. In brief, the animals were anaesthetized with pentobarbital [35 mg/kg body weight (BW) intraperitoneally] and then underwent a right nephrectomy and ligature of two of the major branches of the left main renal artery (Nx) at day 0. AII the nephrectomies were carried out by one operator. The animals were then randomly assigned to one of five groups, as follows. • Group 1. SHAM (n=12); sham-operated rats. • Group 2. Nx (n=15); untreated 5/6 nephrectomy rats. • Group 3. […]
as §1, with “The Animal Care and Use Committee of Meir Hospital approved all procedures.” left out
Kidneys were fixed in neutral buffered formalin and embedded in paraffin for light microscopic study. […] A semi-quantitative score was used to assess the severity of glomerular lesions (see Nephrol. Dial. Transplant. 8, 501-506 (1993), the disclosures of which document are hereby incorporated by reference). […]

Structure (SMILES) | Survival (% age) (5/6 nephrectomy rats [1]) | ME Score (mesangial expansion score, median value) (5/6 nephrectomy rats [2]) | Survival (surviving rats of group) (5/6 nephrectomy rats [1])
C[C@H](O)[C@H](O)[C@H]1CNc2nc(N)[nH]c(=O)c2N1 [BH4, Tetrahydrobiopterin] | (50%) | 158 | –
CCOc1nc2cccc(C(=O)OC(C)OC(=O)OC3CCCCC3)c2n1Cc1ccc(-c2ccccc2-c2nnn[nH]2)cc1 (centres unmarked) [candesartan cilexetil, 1-(cyclohexyloxycarbonyloxy)ethyl ester of candesartan] | (63.64%) | 82 | 7 of 11
